In patent publication US20060286167A1, “Compositions and methods for the treatment of neurodegenerative diseases” (priority 2005, published 2006) one finds SNR data, which are given here for 56 compounds.

The test system of this assay is SMN protein in SMA patient fibroblasts (GM03813). The assay is described as follows: SMN cytoblot assay (SMN protein levels in SMA patient fibroblasts). The format is cell-based, human. An excerpt: One method for monitoring SMN protein levels in cells is through use of a cytoblot assay, in which cells are fixed and probed with an antibody against a target protein of interest. We have used a cytoblot assay to determine the concentration of SMN protein in SMA patient fibroblasts, and have identified small molecules that increase SMN protein concentration.
Using the cytoblot assay, we can clearly distinguish SMN protein levels in patient (GM03813) versus carrier fibroblast cells (GM03814), as shown in the FIGS. 1A and 1B.
• 1. Plate 50 μl per well of 300,000 cells/ml (15,000 cells per well) into Nunc white 384-well opaque-bottomed plates. • 2. Incubate plates at 37° C., 5% CO2 overnight. Day 2 • 1. Aspirate media from wells using Tecan plate washer. • 2. Fix cells by adding 20 μl/well of cold methanol (kept in −20° C. freezer). • 3. Incubate plates in 4° C. refrigerator for 10 minutes. • 4. Aspirate methanol using Tecan plate washer. • 5. Add 50 μl/well of primary Ab solution, (BD anti-SMN Ab diluted to 125 ng/ml in 10% fetal goat serum PBST), using multi-drop. • 6. Seal plates and incubate overnight at room temperature. Day 3 • 1. After 16-20 hrs incubation, wash plates with PBST 2× using Tecan plate washer. • 2. Add 50 μl of secondary Ab solution, (Santa Cruz goat anti-Mouse-HRP diluted to 67 ng/ml in 10% fetal goat serum PBST). • 3. Seal plates and incubate 2 hrs at room temperature. • 4. Wash plates with PBST 2× using Tecan plate washer. • 5. Add 50 μl/well 10% fetal goat serum PBST. • 6. Incubate in 4° C. refrigerator for 10 minutes. • 7. Aspirate plates using plate washer and add ECL luminescence solution, 20 μl/well. • 8. Measure luminescence on plate reader. Automated Scoring
We scored each compound based on the maximum signal-to-noise ratio (SNR) found among its dose curves. These scores are based on edge-corrected SMN data, using only plates that passed quality control. The untreated level on each plate was found by taking the median of the untreated wells, and for each treated well we calculated a log(T/U) ratio. Each curve was generated in triplicate on each plate, so each point on a compound's dose curve was obtained by determining the median for the replicate points. Each ratio thus has an error estimate from the scatter between the triplicate data points (1.5 times the median absolute deviation from the median). For each dose curve, we calculated the SNR for each data point log(T/U)/error, and chose the maximum point as our indicator of SMN induction activity. Since this is a signal-to-noise score, scores much greater than one indicate significant activity, assuming normal statistics. We decided to use a cutoff signal-to-noise ratio of 6. This selection represents a considerable enrichment towards visually-selected compounds. We identified 100 out of 2000 compounds producing scores >6. This included 13 of the 28 visual selections.

The mark [1] stands for this setting: maximum signal-to-noise ratio log(T/U)/error among a compound's dose curves, SMN cytoblot, cutoff 6, column Scoring says Automated or Visual selection.

Counter-ions that a name gives are not always drawn. Like-named read-outs stand apart in the source and are kept apart here. Where no end group is shown, it is not given here.

For `CC(C)NCC(O)COc1cccc2ccccc12` (centres unmarked) [Propranolol Hydrochloride], the SNR under setting [1] was found to be 7.38.

For the compound `C=C(C)C1CCC(C)CC1OC(C)=O` (centres unmarked) [Isopulegol acetate], under setting [1], the SNR was found to be 11.4. On the same count and under the same terms, in the case of `CC1(C)S[C@@H]2[C@H](NC(=O)[C@H](NC(=O)N3CCNC3=O)c3ccccc3)C(=O)N2[C@H]1C(=O)O` [Azlocillin Sodium] it was 6.7; in that of `CS(=O)(=O)OCCCCOS(C)(=O)=O` [Busulfan], 17.4. For the compound “Calcitonin (CGNLSTCMLGTYTQDFNKFHTFPQTAIGVGAP; ends and bridges not checked; cysteine pairing not given here; UniProt P01258 85-116, looked up)”, the SNR under setting [1] turned out to be 7.46. The compound Ferric Ammonium Citrate came in with an SNR of 19.4.

With `NC[C@@H]1O[C@H](O[C@H]2[C@@H](O)[C@H](O[C@@H]3[C@@H](O)[C@H](N)C[C@H](N)[C@H]3O[C@H]3O[C@H](CO)[C@@H](O)[C@H](O)[C@H]3N)O[C@@H]2CO)[C@H](N)[C@@H](O)[C@@H]1O` [Paromomycin Sulfate], under setting [1], the SNR was 11.

Take `C1CNCCN1.O=C(O)CC(O)(CC(=O)O)C(=O)O` [Piperazine Citrate]: the SNR was 6.68.

As for `CC1CCC(C(C)C)C(O)C1` (centres unmarked) [Menthol], under setting [1], the SNR was 7.87. Consider `CN[C@@H]1[C@H](O)[C@H](NC)[C@H]2O[C@@]3(O)C(=O)C[C@@H](C)O[C@H]3O[C@@H]2[C@H]1O` [Spectinomycin], for which the SNR under setting [1] is recorded as 11. On the same count and under the same terms, the figure for `C#CCN(C)Cc1ccccc1` [Pargyline] is 6.52. The same measure, in the same setting: in the case of `N=C(N)NC(=O)Cc1c(Cl)cccc1Cl` [Guanfacine Hydrochloride, (N-aminoiminomethyl)-2,6-dichlorobenzeneacetamide] it was 7.24. The same measure, in the same setting: in the case of `OC[C@@H](O)[C@@H](O[C@@H]1O[C@H](CO)[C@H](O)[C@H](O)[C@H]1O)[C@H](O)[C@@H](O)CO` [Lactitol] it was 15.8. Take `CC(C)(Oc1ccc(CCNC(=O)c2ccc(Cl)cc2)cc1)C(=O)O` [Bezafibrate]: the SNR under setting [1] is on record as 7.38. On the same count and under the same terms, the figure for `CC(O)CN1CCN(CC(=O)[O-])CCN(CC(=O)[O-])CCN(CC(=O)[O-])CC1.[Gd+3]` (centres unmarked) [Gadoteridol] is 6.54; for `CCCCCCCC/C=C\CCCCCCCC(=O)OC` [Methyl Oleate] it is 7.89; for `CCN(CC)C(C)CN1c2ccccc2Sc2ccccc21` (centres unmarked) [Ethopropazine Hydrochloride] it is 9.61. The same measure, in the same setting: the figure for Dibekacin Sulfate Salt is 6.79; for Neomycin Sulfate it is 7.96. The same measure, in the same setting: the figure for `CCN(CC)CCNC(=O)c1cc(S(C)(=O)=O)ccc1OC` [Tiapride] is 10.5.

For `O=C(OCc1ccccc1)c1ccccc1` [Benzyl Benzoate], the SNR under setting [1] is listed as 9.42. As for `CCCCCC/C=C\CCCCCCCC(=O)OC` [Methyl Palmitoleate], the SNR under setting [1] is given as 9.63. Still for that read-out and setting: the figure for `CCCC(CCC)C(=O)O` [Divalproex Sodium] is 6.59; for `CN(C)c1nc(N(C)C)nc(N(C)C)n1` [Altretamine] it is 10.2; for `C=CCSSCC=C` [Allyl Disulfide] it is 9.08. Take `C=CCCC(=O)O` [4-Pentenoic acid]: the SNR under setting [1] worked out at 10.8.

`CCCCCC(Br)C(=O)O` (stereo not drawn) [alpha-Bromohepyanoic acid]: under setting [1], the SNR was 8.41. The same measure, in the same setting: in the case of `CC1=C(/C=C/C(C)O)C(C)(C)CCC1` (stereo not drawn) [Beta-Ionol] it was 10.3; in that of `CC(=O)N1C[C@H](O)C[C@H]1C(=O)O` [Oxaceprol], 10.6.

Turning to `CCCCC(CC)COC(=O)/C=C/C(=O)OCC(CC)CCCC` (centres unmarked) [Bis(2-Ethlyhexyl) Fumarate], the SNR under setting [1] is given as 7.33. On the same count and under the same terms, in the case of `COc1ccc(CC(C)=O)cc1OC` [3,4-Dimethoxyphenylacetone] it was 7.25. Consider `CS(=N)(=O)CC[C@H](N)C(=O)O` (stereo partly drawn) [L-Methionine Sulfoximine], for which the SNR is reported as 7.29. Turning to `CCCC(CCC)C(=O)O[C@H]1C[C@H]2CC[C@@H](C1)[N+]2(C)C` [Anisotropine Methylbromide], the SNR under setting [1] is given as 6.43. Take “[2-(hexahydro-1 (2H)-azocinyl)ethyl]guanidine [Guanethidine Monosulfate]”: under setting [1], the SNR came to 11.3. `O=C(N/N=C/c1ccc([N+](=O)[O-])o1)c1ccc(O)cc1` [Nifuroxazide]: the SNR under setting [1] came out at 6.96. With `NC[C@@H]1O[C@H](O[C@H]2[C@@H](O)[C@H](O[C@@H]3[C@@H](O)[C@H](N)C[C@H](N)[C@H]3O[C@H]3O[C@H](CN)[C@@H](O)[C@H](O)[C@H]3N)O[C@@H]2CO)[C@H](N)[C@@H](O)[C@@H]1O` [Framycetin], the SNR under setting [1] stood at 13.3.

Turning to Chymopapain, under setting [1], the SNR was 6.83. For the compound `C/C=C/c1ccc(OC)cc1` [Trans-Anethole], the SNR under setting [1] stood at 8.35.

For the compound `CN1CCCN=C1/C=C/c1cccs1` [Pyrantel Pamoate], under setting [1], the SNR came to 6.22. Take `CC(C[N+](C)(C)C)OC(N)=O` (centres unmarked) [Bethanechol Chloride]: the SNR under setting [1] is reported as 9.26.

As for `CC1(C)S[C@@H]2[C@H](NC(=O)C(C(=O)O)c3ccccc3)C(=O)N2[C@H]1C(=O)O` (some centres unmarked) [Carbenicillin Disodium], the SNR under setting [1] worked out at 7.99. With `O=c1[nH]c(=O)n(C2CCCO2)cc1F` (centres unmarked) [Tegafur], the SNR under setting [1] was 6.74. Same read-out and setting: in the case of `CC(=O)OCC(=O)[C@@]12OC(C)(C)O[C@@H]1C[C@H]1[C@@H]3C[C@H](F)C4=CC(=O)C=C[C@]4(C)[C@@]3(F)[C@@H](O)C[C@@]12C` [Fluocinonide] it was 7.01; in that of `COC(=O)[C@H]1[C@H]2C[C@@H]3c4[nH]c5cc(OC)ccc5c4CCN3C[C@H]2C[C@@H](OC(=O)/C=C/c2cc(OC)c(OC)c(OC)c2)[C@@H]1OC` [Rescinnamine], 6.3; in that of `CCOC(=O)[C@H](CCc1ccccc1)N[C@@H](C)C(=O)N1CCC[C@H]1C(=O)O` [Enalapril], 6.77. Turning to `NCCc1c[nH]c2ccc(O)cc12` [Serotonin], the SNR under setting [1] was found to be 6.15.

For the compound `O=C(O)[C@H](O)[C@@H](O)C(=O)O` [L-Tartaric acid], the SNR under setting [1] is on record as 6.92. Still for that read-out and setting: in the case of `CC[C@@H](C(N)=O)N1CCCC1=O` [Levetiracetam] it was 7.74; in that of `CC[N+](CC)(CC)CCOc1cccc(OCC[N+](CC)(CC)CC)c1OCC[N+](CC)(CC)CC` [Gallamine Triethiodide], 15.4; in that of `CC(C)NCC(O)COc1ccc(CCOCC2CC2)cc1` (centres unmarked) [Betaxolol Hydrochloride], 7.21. On the same count and under the same terms, the figure for `CC(=O)OCC(=O)[C@H]1CC[C@H]2[C@@H]3CCC4=CC(=O)CC[C@]4(C)[C@H]3CC[C@]12C` [Desoxycorticosterone Acetate] is 7.41. Same read-out and setting: in the case of `CCc1cc(C(N)=S)ccn1` [Ethionamide] it was 14; in that of `COc1c2occc2c(OC)c2c(=O)cc(C)oc12` [Khellin], 6.73; in that of `CC(C)CCCC(C)CCCC(C)CCCCC(C)CCCC(C)CCCC(C)C` (centres unmarked) [Hexamethyltetracosane], 6.64.

For the compound Gentamicin Sulfate, the SNR under setting [1] is 14.9. Same read-out and setting: in the case of `C=N[C@@H](C(=O)N[C@@H]1C(=O)N2[C@@H]1SC(C)(C)[C@@H]2C(=O)O)c1ccccc1` [Metampicillin] it was 9.95.
